Measurements taken from the NIST ThermoML archive (doi:10.1016/j.jct.2019.105881).
± gives the expanded uncertainty stated by the source.

Test: wn = mass fraction of the nth substance listed
Settings: 100 kPa, Liquid, transient hot wire

CCCCCCCCCCCC(=O)OC [methyl dodecanoate] + CCCCCO
Settings	thermal conductivity [W/m/K]
287.79 K, w1 = 0.6756	0.1488 ± 0.006
287.86 K, w1 = 0.2997	0.1497 ± 0.006
287.92 K, w1 = 0.5029	0.1493 ± 0.006
288 K, w1 = 0.1021	0.1503 ± 0.0061
288.01 K, w1 = 0.8983	0.1482 ± 0.006
297.82 K, w1 = 0.1021	0.1486 ± 0.006
297.86 K, w1 = 0.5029	0.1475 ± 0.0059
297.95 K, w1 = 0.6756	0.1469 ± 0.0059
298.07 K, w1 = 0.2997	0.148 ± 0.006
298.1 K, w1 = 0.8983	0.1456 ± 0.0059
307.72 K, w1 = 0.1021	0.1468 ± 0.0059
307.78 K, w1 = 0.6756	0.145 ± 0.0058
307.8 K, w1 = 0.5029	0.1453 ± 0.0058
307.84 K, w1 = 0.2997	0.1455 ± 0.0059
307.9 K, w1 = 0.8983	0.1441 ± 0.0058
317.72 K, w1 = 0.1021	0.1441 ± 0.0058
317.72 K, w1 = 0.2997	0.1435 ± 0.0058
317.8 K, w1 = 0.6756	0.1424 ± 0.0057
317.85 K, w1 = 0.5029	0.1429 ± 0.0058
317.85 K, w1 = 0.8983	0.1419 ± 0.0057
327.58 K, w1 = 0.1021	0.1422 ± 0.0057
327.68 K, w1 = 0.2997	0.1412 ± 0.0057
327.7 K, w1 = 0.6756	0.1407 ± 0.0057
327.72 K, w1 = 0.5029	0.141 ± 0.0057
327.87 K, w1 = 0.8983	0.1397 ± 0.0056
337.42 K, w1 = 0.1021	0.1399 ± 0.0056
337.53 K, w1 = 0.2997	0.139 ± 0.0056
337.67 K, w1 = 0.5029	0.1389 ± 0.0056
337.76 K, w1 = 0.6756	0.1385 ± 0.0056
337.85 K, w1 = 0.8983	0.1373 ± 0.0055
347.5 K, w1 = 0.2997	0.137 ± 0.0055
347.65 K, w1 = 0.1021	0.138 ± 0.0056
347.66 K, w1 = 0.5029	0.1368 ± 0.0055
347.7 K, w1 = 0.8983	0.1352 ± 0.0054
347.78 K, w1 = 0.6756	0.1356 ± 0.0055
357.16 K, w1 = 0.1021	0.1364 ± 0.0055
357.47 K, w1 = 0.2997	0.135 ± 0.0054
357.65 K, w1 = 0.5029	0.1348 ± 0.0054
357.73 K, w1 = 0.6756	0.1335 ± 0.0054
357.79 K, w1 = 0.8983	0.1332 ± 0.0054

CCCCCCCCCCCC(=O)OC [methyl dodecanoate] + CCCCO
Settings	thermal conductivity [W/m/K]
287.91 K, w1 = 0.3009	0.1499 ± 0.006
287.94 K, w1 = 0.1013	0.1515 ± 0.0061
287.95 K, w1 = 0.5027	0.1492 ± 0.006
288.07 K, w1 = 0.6997	0.1488 ± 0.006
288.14 K, w1 = 0.8996	0.1485 ± 0.006
297.76 K, w1 = 0.1013	0.1489 ± 0.006
297.9 K, w1 = 0.6997	0.1469 ± 0.0059
297.92 K, w1 = 0.5027	0.1471 ± 0.0059
297.95 K, w1 = 0.3009	0.1475 ± 0.0059
298.02 K, w1 = 0.8996	0.1463 ± 0.0059
307.79 K, w1 = 0.1013	0.1465 ± 0.0059
307.81 K, w1 = 0.3009	0.1457 ± 0.0059
307.83 K, w1 = 0.5027	0.1452 ± 0.0058
307.96 K, w1 = 0.8996	0.1441 ± 0.0058
307.99 K, w1 = 0.6997	0.1445 ± 0.0058
317.67 K, w1 = 0.3009	0.1434 ± 0.0058
317.75 K, w1 = 0.1013	0.144 ± 0.0058
317.8 K, w1 = 0.5027	0.1426 ± 0.0057
317.83 K, w1 = 0.8996	0.1422 ± 0.0057
317.88 K, w1 = 0.6997	0.1424 ± 0.0057
327.6 K, w1 = 0.1013	0.1419 ± 0.0057
327.69 K, w1 = 0.3009	0.1411 ± 0.0057
327.94 K, w1 = 0.5027	0.14 ± 0.0056
327.94 K, w1 = 0.6997	0.1398 ± 0.0056
328.11 K, w1 = 0.8996	0.139 ± 0.0056
337.45 K, w1 = 0.3009	0.1386 ± 0.0056
337.47 K, w1 = 0.1013	0.1395 ± 0.0056
337.93 K, w1 = 0.5027	0.1378 ± 0.0055
337.95 K, w1 = 0.8996	0.1371 ± 0.0055
337.96 K, w1 = 0.6997	0.1375 ± 0.0055
347.23 K, w1 = 0.1013	0.1368 ± 0.0055
347.28 K, w1 = 0.3009	0.1361 ± 0.0055
347.67 K, w1 = 0.6997	0.1354 ± 0.0054
347.73 K, w1 = 0.5027	0.1358 ± 0.0055
347.86 K, w1 = 0.8996	0.135 ± 0.0054
357.25 K, w1 = 0.3009	0.1333 ± 0.0054
357.28 K, w1 = 0.1013	0.1342 ± 0.0054
357.71 K, w1 = 0.8996	0.1322 ± 0.0053
357.82 K, w1 = 0.5027	0.133 ± 0.0054
357.87 K, w1 = 0.6997	0.1327 ± 0.0053

CCCCCCCCCCCC(=O)OC [methyl dodecanoate] + CCCO
Settings	thermal conductivity [W/m/K]
287.68 K, w1 = 0.6993	0.1497 ± 0.006
287.9 K, w1 = 0.298	0.1522 ± 0.0061
287.91 K, w1 = 0.1	0.1542 ± 0.0062
288 K, w1 = 0.4998	0.1509 ± 0.0061
288.06 K, w1 = 0.8996	0.1484 ± 0.006
297.73 K, w1 = 0.6993	0.1473 ± 0.0059
297.79 K, w1 = 0.1	0.1517 ± 0.0061
297.85 K, w1 = 0.4998	0.1484 ± 0.006
297.85 K, w1 = 0.8996	0.1467 ± 0.0059
297.93 K, w1 = 0.298	0.1494 ± 0.006
307.66 K, w1 = 0.1	0.1492 ± 0.006
307.76 K, w1 = 0.4998	0.1457 ± 0.0059
307.83 K, w1 = 0.298	0.1474 ± 0.0059
307.89 K, w1 = 0.8996	0.1445 ± 0.0058
308.03 K, w1 = 0.6993	0.1452 ± 0.0058
317.53 K, w1 = 0.298	0.1451 ± 0.0058
317.62 K, w1 = 0.1	0.1474 ± 0.0059
317.67 K, w1 = 0.4998	0.1436 ± 0.0058
317.86 K, w1 = 0.6993	0.1429 ± 0.0058
318.02 K, w1 = 0.8996	0.1422 ± 0.0057
327.34 K, w1 = 0.298	0.1424 ± 0.0057
327.67 K, w1 = 0.1	0.1446 ± 0.0058
327.67 K, w1 = 0.4998	0.1412 ± 0.0057
327.68 K, w1 = 0.8996	0.1398 ± 0.0056
328.03 K, w1 = 0.6993	0.1405 ± 0.0057
337.22 K, w1 = 0.1	0.1423 ± 0.0057
337.4 K, w1 = 0.298	0.14 ± 0.0056
337.64 K, w1 = 0.4998	0.1391 ± 0.0056
337.82 K, w1 = 0.6993	0.1384 ± 0.0056
337.85 K, w1 = 0.8996	0.1377 ± 0.0055
347.19 K, w1 = 0.1	0.139 ± 0.0056
347.24 K, w1 = 0.298	0.1374 ± 0.0055
347.52 K, w1 = 0.4998	0.1368 ± 0.0055
347.82 K, w1 = 0.6993	0.1362 ± 0.0055
347.93 K, w1 = 0.8996	0.135 ± 0.0054
357.25 K, w1 = 0.1	0.1365 ± 0.0055
357.44 K, w1 = 0.298	0.1351 ± 0.0054
357.79 K, w1 = 0.4998	0.1344 ± 0.0054
357.91 K, w1 = 0.6993	0.1337 ± 0.0054
357.93 K, w1 = 0.8996	0.1326 ± 0.0053
